Tests used:
[1] = ADME tests: liver microsome metabolic stability and direct inhibition test; assay type: in vitro ADME; settings: metabolic stability, direct inhibition test
Protocol: (1) Metabolic stability test: 150 μL system of liver microsome (final concentration 0.5 mg/mL) was used for metabolic stability incubation, the system contained NADPH (final concentration 1 mM), 1 μM test compound and positive control Midazolam or negative control Atenolol, then the reaction was terminated with Tinidazole-containing acetonitrile at 0 min, 5 min, 10 min and 30 min respectively, and the mixtures were vortexed for 10 minutes and centrifuged for 10 minutes at 15000 rmp, 50 μL of the supernatants were added into 96-well plate for injection. The metabolic stability of the compounds was calculated by measuring the relative reduction of the original drug.
(2) Direct inhibition test (DI test): Direct inhibition incubation was carried out with 100 μL system of human liver microsome (final concentration 0.2 mg/mL), the system containing NADPH (final concentration 1 mM), 10 μM compound, positive inhibitor cocktail (Ketoconazole 10 μM, Quinidine 10 μM, Sulfaphenazolum 100 μM, α-Naphthoflavone 10 μM, Tranylcypromine 1000 μM), negative control (BPS containing 0.1% DMSO) and mixed probe substrates (Midazolam 10 μM, Testosterone 100 μM, Dextromethorphan […], Diclofenac 20 μM, Phenacetin 100 μM, Mephenytoin 100 μM) was incubated for 20 minutes and then the reaction was terminated. The relative activity of enzymes was calculated by measuring the relative production of metabolites.

[2] = Pharmacokinetics in rats or mice after intragastric and intravenous administration; assay type: in vivo, SD rats or BALB/c mice; settings: iv 3 mg/kg, intragastric 10 mg/kg
Protocol: (3) LC/MS/MS method was used to measure the drug concentration in plasma at different time points after the embodiment compounds were administered to the rats or mice by intragastric administration and intravenous injection respectively, so as to study the pharmacokinetic behavior of the compounds of the present disclosure in rats or mice and evaluate the pharmacokinetic characteristics thereof. […]

[3] = tested on: various tumor cells (HuH-7, SNU-16, KG1, UM-UC-14, RT-112 etc.); test: Proliferation inhibitory activity on various tumor cells (SRB or CCK8); assay type: cell-based; settings: SRB or CCK8 method; read-out: proliferation inhibitory activities on various tumor cells

## C=CC(=O)N1CCN(CCCc2cn3c(n2)c(-c2c(Cl)c(OC)cc(OC)c2Cl)cc2cnc(NC)nc23)CC1 [Embodiment 3, 1-(4-(3-(6-(2,6-dichloro-3,5-dimethoxyaniline)-2-(methylamine)imidazo[1′,2′:1,6]pyrido[2,3-d]pyrimidin-8-yl)propyl)piperazine-1-yl)prop-2-en-1-one]
[1]
  ADME properties: better ADME properties
[2]
  absorption and metabolism properties in rats and mice: good absorption and metabolism properties in rats and mice
[3]
  IC50: < 100 nM

Reference: patent US11267815B2, “Class of amino-substituted nitrogen-containing fused ring compounds, preparation method therefor, and use thereof” (SHANGHAI RINGENE BIOPHARMA CO., LTD., priority 2017, dated 2022)
